Assay results: patent publication US20210039089A1, “DEVICES, KITS, AND METHODS FOR LABEL-FREE SEPARATION AND SUBTYPING OF RARE CELLS” (University of Georgia Research Foundation, Inc., priority 2019, published 2021)
Entries after “also recorded” stand apart in the source; their conditions may differ.

Tests used:
MDA-MB-231 cancer cells = assay: MChip purification assay, cells loaded in middle channel, cancer cell readout; assay type: cell-based; conditions: FMLP vs control; FIG. 14
Procedure: (§1) WBCs and MDA-MB-231 cancer cells were mixed at a 1:1 ratio in FBS-free DMEM medium and loaded to the top edge of the middle/main channel. The positions of these cells were determined by an optimized flow rate and open/close of channel inlets/outlets. Briefly, the microfluidic device was filled with cell culture medium and incubator at 37° C. for one hour. Sealed all the inlet/outlets except cell loading inlet (middle/main channel) and channel #1 outlet (top). 50 μL cell mixture was loaded into cell loading inlet and the cell alignment was achieved using a syringe pump (5 μL/min) that connected to the channel #1 outlet (top). Then replaced the cell suspension with FBS-free medium and incubated for 30 minutes. The FBS-free medium flowed into the middle channel, the top channel (first outer channel) #1 was filled with medium containing 10% FBS, and the bottom channel (second outer channel) […] was filled with FBS-free medium containing FMLP (200 ng/mL). The flow rates for 3 channels were 0.1 μL/min. The cells were incubated at 37° C. for 24 hours.
(§2) To retrieve the cancer cells of heterogeneously migratory properties with low WBCs contamination, the cell loading channel and “chemos” loading channel (middle, #9) were swapped: cells was loaded to the top part of the middle channel (#9) while the serum was loaded into side channels (top/bottom, #1). […]

WBCs [1] = assay: MChip purification assay, cells loaded in middle channel, WBC readout; assay type: cell-based, human
Procedure: as §1
The blood sample was drawn from multiple healthy donors in compliance with the applicable federal, state, and institutional policies and procedures in the United States. Healthy human blood samples were obtained from the Clinical and Translational Research Unit of the University of Georgia with informed consent according to an IRB-approved protocol. The collected blood samples were stored in vacutainer K2-EDTA (BD, Franklin Lakes, N.J.). Complete blood count (CBC) reported was obtained to determine the number & subtypes of WBCs. The blood processing with iFCS was discussed in our previous work (Zhao, et al., Lab on a Chip 2019, 19 (10), 1860-76, incorporated by reference above).^10
as §2

[2] = test system: MDA-MB-231 breast cancer cell line; assay: MChip cancer cell migration assay, cells loaded in channel #1; assay type: cell-based
Procedure: The microfluidic device was pre-filled with FBS-free cell culture medium and incubated at 37° C. for 1 hour. All of the channel inlet/outlet, except cell loading inlets (top/bottom channel #1) and middle channel outlet, are sealed with tape before cell loading. Cancer cells were collected from culture plates with 0.25% Trypsin-EDTA (ThermoFisher, Waltham, Mass.) and pelleted by centrifugation at 500 g for 5 minutes. Then, the cells were re-suspended in FBS-free culture medium, DMEM or RPMI (ThermoFisher, Waltham, Mass.), to a concentration of 5×10^5 cells/mL. 50 μL of cell suspension was pipetted into the cell loading channels. One syringe pump (Chemyx, Stafford, Tex.) was connected to the middle channel outlet and the flow rate was 5 μL/min. When all entrances of migration channels were filled with cancer cells, the pump was stopped and the cell suspension was replaced with FBS-free cell culture medium. The device was then placed in the incubator (37° C., 5% CO2) for 40 min to ensure the cell adhesion to the glass slide. Then, the tape/covers were removed from the cell loading outlet and middle inlet, and these inlets were connected with syringe pumps. The FBS-free medium flowed into the cell loading channel while the middle channel was filled with medium containing 10% FBS. The flow rates for 3 channels were 0.1 μL/min. The entire chip was placed in the cell culture incubator (37° C., 5% CO2) for about 24 hours. […]
Since migration time^14, 21 and FBS concentration were key parameters that determined the final position of individual cells, a series experiment were conducted to test the influence of different FBS concentrations (0%, 5%, and 10%) and various working time (6 hr, 12 hr, and 24 hr). […] It is noteworthy that cell migratory behaviors were also determined by the glass coating method, for example, coating using different concentrations of collagen and poly-L-Lysine (FIG. 7). […]

WBCs [3] = assay: MChip WBC migration assay, cells loaded in channel #1; assay type: cell-based, human
Procedure: FIGS. 6A-6H illustrate purification of circulating tumor cells isolated from human blood using iFCS separation and an embodiment of a device of the present disclosure. FIG. 6A is images validation of combination effect of using iFCS and a device of the present disclosure with cultured cancer cells spiked into healthy blood. Left, an iFCS device was used to recover more than 99.2% spiked cancer cells and deplete many WBCs (˜500 cells per mL). Collected cancer cells and WBCs were injected into the “MChip” of the present disclosure to further purify CTC by removing most remaining WBCs based on different migratory abilities, as shown in the right image. Migratory cancer cells could be retrieved with high purity. FIG. 6B is a graph comparing migratory abilities for cells before and after iFCS processing. […] FIG. 6C illustrates WBC (n=-5000, channel #1 loading) migration assays under control (FBS only), WBC chemo-attractant (FM LP) and WBC chemo-repellent (Slit2). FBS (10%) or Slit2 (5 μg/mL) were loaded into the middle channel (channel #9), while FMLP (200 ng/mL) were filled in the […]. Only the WBCs of >200 μm Y position were counted. […] Right, images of WBCs 24-hour migration assay using Slit2 (5 μg/mL) in 10% FBS. Flow rate v=0.1 μL/min. WBCs were stained with cell tracker red. Fluorescence images were taken at 0 hour and 24 hours. Circles indicate the migratory WBCs. FIG. 6D is a graph illustrating breast cancer cells, MDA-MB-231, loaded into channel #1 with Slit2 (5 μg/mL) in 10% FBS in the middle channel. Flow rate v=0.1 μL/min. The graph indicates positions of MDA-MB-231 and the rectangular symbols indicate the mean value. FIG. 6E is an image of WBCs (red) and MDA-MB-231 (green) mixture (1:1) migration assay with middle channel (channel #9) filled with 10% FBS and Slit2 (5 μg/mL). At 24 hours, most of the migratory cancer cells moved into the migration/collection channels with ˜2 WBCs contamination. FIG. 6F illustrates a WBC migration assay using FBS, FMLP, and Slit2. WBCs (n=˜2500) loaded into the top edge of the middle channel. […]

[4] = 1:1 mixture, 10% FBS top channel, 0% FBS middle, 0% FBS + FMLP (200 ng/mL) bottom, 24 hours

fMet-Leu-Phe [FMLP]
effect on MDA-MB-231 migration (MDA-MB-231 cancer cells): without a negative effect
WBCs moved to the bottom part (WBCs [1]; [4]): 88.3%
WBCs stayed in the middle loading channel (WBCs [1]; [4]): 11.2%
effect on WBC migration direction (WBCs [1]; FMLP in bottom side channel, WBCs loaded at top edge of middle channel, FIG. 6F): attract the majority of WBCs to the bottom part; also recorded: significant performance in inducing cells toward the bottom channel

collagen
average migration distance by glass coating method ([2]; collagen vs poly-L-Lysine coating at different concentrations, FIG. 7): largest

B1: slit2: Slit guidance ligand 2, chemo-repellent for WBCs, neutrophil inhibitor (protein, UniProt O94813 31-1529, looked up)
Slit homolog 2 protein: QCSCSGSTVDCHGLALRSVPRNIPRNTERLDLNGNNITRITKTDFAGLRHLRVLQLMENKISTIERGAFQDLKELERLRLNRNHLQLFPELLFLGTAKLYRLDLSENQIQAIPRKAFRGAVDIKNLQLDYNQISCIEDGAFRALRDLEVLTLNNNNITRLSVASFNHMPKLRTFRLHSNNLYCDCHLAWLSDWLRQRPRVGLYTQCMGPSHLRGHNVAEVQKREFVCSGHQSFMAPSCSVLHCPAACTCSNNIVDCRGKGLTEIPTNLPETITEIRLEQNTIKVIPPGAFSPYKKLRRIDLSNNQISELAPDAFQGLRSLNSLVLYGNKITELPKSLFEGLFSLQLLLLNANKINCLRVDAFQDLHNLNLLSLYDNKLQTIAKGTFSPLRAIQTMHLAQNPFICDCHLKWLADYLHTNPIETSGARCTSPRRLANKRIGQIKSKKFRCSAKEQYFIPGTEDYRSKLSGDCFADLACPEKCRCEGTTVDCSNQKLNKIPEHIPQYTAELRLNNNEFTVLEATGIFKKLPQLRKINFSNNKITDIEEGAFEGASGVNEILLTSNRLENVQHKMFKGLESLKTLMLRSNRITCVGNDSFIGLSSVRLLSLYDNQITTVAPGAFDTLHSLSTLNLLANPFNCNCYLAWLGEWLRKKRIVTGNPRCQKPYFLKEIPIQDVAIQDFTCDDGNDDNSCSPLSRCPTECTCLDTVVRCSNKGLKVLPKGIPRDVTELYLDGNQFTLVPKELSNYKHLTLIDLSNNRISTLSNQSFSNMTQLLTLILSYNRLRCIPPRTFDGLKSLRLLSLHGNDISVVPEGAFNDLSALSHLAIGANPLYCDCNMQWLSDWVKSEYKEPGIARCAGPGEMADKLLLTTPSKKFTCQGPVDVNILAKCNPCLSNPCKNDGTCNSDPVDFYRCTCPYGFKGQDCDVPIHACISNPCKHGGTCHLKEGEEDGFWCICADGFEGENCEVNVDDCEDNDCENNSTCVDGINNYTCLCPPEYTGELCEEKLDFCAQDLNPCQHDSKCILTPKGFKCDCTPGYVGEHCDIDFDDCQDNKCKNGAHCTDAVNGYTCICPEGYSGLFCEFSPPMVLPRTSPCDNFDCQNGAQCIVRINEPICQCLPGYQGEKCEKLVSVNFINKESYLQIPSAKVRPQTNITLQIATDEDSGILLYKGDKDHIAVELYRGRVRASYDTGSHPASAIYSVETINDGNFHIVELLALDQSLSLSVDGGNPKIITNLSKQSTLNFDSPLYVGGMPGKSNVASLRQAPGQNGTSFHGCIRNLYINSELQDFQKVPMQTGILPGCEPCHKKVCAHGTCQPSSQAGFTCECQEGWMGPLCDQRTNDPCLGNKCVHGTCLPINAFSYSCKCLEGHGGVLCDEEEDLFNPCQAIKCKHGKCRLSGLGQPYCECSSGYTGDSCDREISCRGERIRDYYQKQQGYAACQTTKKVSRLECRGGCAGGQCCGPLRSKRRKYSFECTDGSSFVDEVEKVVKCGCTRCVS
WBCs contamination in migration/collection channels (WBCs [3]; WBCs and MDA-MB-231 mixture (1:1), middle channel 10% FBS and Slit2 (5 μg/mL), 24 hours): ~2 WBCs
loaded WBCs remaining in the loading channel with non-migratory cells (WBCs [3]; middle channel 10% FBS and 5 μg/mL slit2): 99.6%
WBCs that left the cell loading channel (#1) (WBCs [3]; middle channel loaded with 10% FBS and 5 μg/mL slit2, 24 hours, 0.1 μL/min): 0.4%
cancer cells squeezed into the migration channel ([2]; 5 μg/mL slit2 in 10% FBS in middle channel, 0.1 μL/min): 85%
effect on migratory behavior of MDA-MB-231 cancer cells ([2]; 5 μg/mL slit2 in 10% FBS in middle channel, P=0.004): slightly compromise
